From ChEMBL document CHEMBL1201862, “PubChem BioAssay data set” (2004) come the findings set out here.

Test in all cases: DTP human tumour cell line panel, 48 h
The subject of experiment [1] is OVCAR-5.
In experiment [2] the test system is BT-549.
The subject of experiment [3] is MCF7.
Experiment [4] has as its system SF-539.
The subject of experiment [5] is HCT-116.
Experiment [6] deals with HL-60.
Experiment [7] has as its system NCI-H522.
For experiment [8], the system named is OVCAR-4.
Experiment [9] has as its system CAKI-1.
The test system of experiment [10] is NCI-H23.
The test system of experiment [11] is MDA-MB-435.
Experiment [12] deals with A498.
For experiment [13], the system named is MOLT-4.
Experiment [14] has as its system 786-0.
The subject of experiment [15] is OVCAR-8.
The subject of experiment [16] is SF-268.
Experiment [17] concerns SK-MEL-28.
Experiment [18] has as its system SNB-75.
Experiment [19] relates to K562.
For experiment [20], the system named is CCRF-CEM.

A word on the GI50: it is the concentration at which growth is held to half of that of the control.

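Grown in 96-well plates, cells were treated for 48 hours with each compound at five concentrations. Insufficient inhibition: endpoint recorded as highest concentration tested. GI50: concentration for 50% inhibition of growth.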 The source made the active and inactive calls. Cut-off read from the data, not from the text of the source: active = GI50 up to about 1.1 µM and inactive = higher.

As for `O=C(O)/C=C/C(=O)Nc1nc[nH]n1`, the GI50 in experiment [1] is > 100 µM (inactive); in [2] it was > 100 µM (inactive); in [3], > 100 µM (inactive); in [4], > 100 µM (inactive); in [5] it was > 100 µM (inactive); in experiment [6], 0.034 µM (active). Further, the GI50 in experiment [7], in [8], in experiment [9], in [10], in experiment [11] and in [12] was > 100 µM (inactive) each time. The GI50 is 62.5 µM (inactive) in experiment [13]; > 100 µM (inactive) in [14]; > 100 µM (inactive) in experiment [15]; > 100 µM (inactive) in experiment [16]; > 100 µM (inactive) in [17]; > 100 µM (inactive) in [18].
`COc1ccc2c(c1)CCc1c-2n(CCN(C)C)c2ccc(OC)cc12`: the GI50 is 16.8 µM (inactive) in [1]; 29.1 µM (inactive) in experiment [2]; 16.4 µM (inactive) in experiment [3]; 5.33 µM (inactive) in experiment [5]; 3.77 µM (inactive) in experiment [19]; 10 µM (inactive) in experiment [7]. Further, the GI50 in experiment [8] was 25.4 µM (inactive); in [9] it was 22.1 µM (inactive); in experiment [10], 16.3 µM (inactive); in experiment [11], 6.32 µM (inactive); in experiment [12], 17.6 µM (inactive); in experiment [13], 10.2 µM (inactive). The GI50 in experiment [14] was 27.2 µM (inactive); in [20], 2.38 µM (inactive); in [15], 20.7 µM (inactive); in experiment [16] it was 22.6 µM (inactive); in experiment [17], 9.48 µM (inactive); in experiment [18], 21.2 µM (inactive).
Take `CC1=NOC(=O)/C1=C/c1ccc2c(c1)OCO2`: the GI50 was 37.1 µM (inactive) in experiment [1]; 24 µM (inactive) in experiment [2]; 30.2 µM (inactive) in [3]; 24.3 µM (inactive) in [4]; 34 µM (inactive) in [5]; 55.3 µM (inactive) in experiment [19]. In addition, the GI50 was 38.5 µM (inactive) in [7]; 63.1 µM (inactive) in experiment [8]; 17.3 µM (inactive) in experiment [9]; 37.3 µM (inactive) in experiment [10]; 23.4 µM (inactive) in experiment [11]; 26.3 µM (inactive) in experiment [12]. Moreover, the GI50 in experiment [14] is 21.9 µM (inactive); in [20], 20.7 µM (inactive); in experiment [15] it was 25.4 µM (inactive); in [16], 34.8 µM (inactive); in [17] it was 30.8 µM (inactive); in experiment [18], 22.1 µM (inactive).
Consider `CN(NC(=O)c1ccco1)C1=NCCN1`, for which the GI50 in experiment [1], in [2], in experiment [3], in experiment [4], in [5] and in experiment [19] was > 100 µM (inactive) in each case. In addition, the GI50 in [6], in [7], in [8], in experiment [10], in [11] and in experiment [12] was > 100 µM (inactive) in each case. Further, the GI50 in experiment [13], in experiment [14], in experiment [20], in [15], in [16] and in experiment [17] was > 100 µM (inactive) throughout. For the same compound, the GI50 in experiment [18] was > 100 µM (inactive).
On to `COc1cc(C)c2c(c1C=O)Oc1c(c(C)c(O)c3c1C(O)OC3=O)OC2=O` (centres undefined) [STICTIC ACID], for which the GI50 in [1] was > 100 µM (inactive); in [2], 35.2 µM (inactive); in [3] it was 22.4 µM (inactive); in experiment [4], 31.5 µM (inactive); in [5] it was 36.8 µM (inactive); in experiment [6], 23.3 µM (inactive). Besides, the GI50 is 24.9 µM (inactive) in experiment [7]; 25.5 µM (inactive) in experiment [8]; > 100 µM (inactive) in experiment [9]; 26.5 µM (inactive) in experiment [10]; 50.5 µM (inactive) in experiment [11]; 31.2 µM (inactive) in [12]. Also, the GI50 is 17.6 µM (inactive) in experiment [13]; 73.3 µM (inactive) in experiment [14]; > 10 µM (inactive) in experiment [20]; 31.4 µM (inactive) in experiment [15]; 21.4 µM (inactive) in experiment [16]; > 100 µM (inactive) in experiment [17]. Further, in experiment [18], the GI50 is 26.6 µM (inactive).
As for `CC(=O)NNc1nc(C)c(C(/C=C/c2ccc(NC(C)=O)cc2)=N/NS(=O)(=O)c2ccc(C)cc2)s1`, the GI50 in experiment [1], in experiment [2], in [3], in experiment [4], in experiment [5] and in experiment [6] was > 100 µM (inactive) in each case. The GI50 in [7], in [8], in [9], in [10], in [11] and in experiment [12] was > 100 µM (inactive) throughout. Also, the GI50 in [13], in [14], in [20], in [15], in experiment [16] and in experiment [17] was > 100 µM (inactive) throughout. In addition, the GI50 in experiment [18] is > 100 µM (inactive).
In the case of `Nc1ccc(-c2nc3ccccc3s2)cc1C(F)(F)F`, the GI50 is 13.2 µM (inactive) in [2]; 1.52 µM (inactive) in experiment [3]; 18.7 µM (inactive) in experiment [4]; 13.4 µM (inactive) in experiment [5]; 20 µM (inactive) in [19]; 12.5 µM (inactive) in experiment [6]. Besides, the GI50 in [7] was 16.8 µM (inactive); in experiment [9], 15.2 µM (inactive); in [10], 13.5 µM (inactive); in [11] it was 16.5 µM (inactive); in experiment [12] it was 17.6 µM (inactive); in experiment [13], 19.9 µM (inactive). The GI50 in [14] is 13.5 µM (inactive); in experiment [20], 21.1 µM (inactive); in experiment [15] it was 18.6 µM (inactive); in experiment [16], 16 µM (inactive); in [17], 17.3 µM (inactive); in experiment [18], 14.5 µM (inactive).
With `CCC1c2[nH]c3ccccc3c2C[C@H]2C(=O)NC(CCCCNC(=O)OC(C)(C)C)C(=O)N12` (some centres undefined), the GI50 in experiment [1] was 68.4 µM (inactive); in experiment [2] it was 24.1 µM (inactive); in experiment [3] it was 35.8 µM (inactive); in [5], 26.1 µM (inactive); in [19], 35.8 µM (inactive); in [6], 31.8 µM (inactive). The GI50 in experiment [7] was 20.7 µM (inactive); in experiment [8] it was 28.2 µM (inactive); in experiment [9] it was 25.9 µM (inactive); in [10], 25.9 µM (inactive); in [11], 20.5 µM (inactive); in experiment [12] it was 52.8 µM (inactive). Also, the GI50 was 19.1 µM (inactive) in [13]; 22.2 µM (inactive) in experiment [14]; 33 µM (inactive) in experiment [15]; 45.1 µM (inactive) in experiment [16]; 41.1 µM (inactive) in [17]; 15.3 µM (inactive) in [18].
`CCOC(=O)/C=C/C1OC(C)(C)OC1/C=C/C(=O)OCC` (centres undefined): the GI50 is 29.9 µM (inactive) in experiment [1]; 54.8 µM (inactive) in experiment [2]; 30.8 µM (inactive) in experiment [3]; 40.2 µM (inactive) in experiment [4]; 30.8 µM (inactive) in experiment [5]; 21.4 µM (inactive) in experiment [19]. For the same compound, the GI50 in experiment [7] is 22.5 µM (inactive); in experiment [8], 32.4 µM (inactive); in experiment [9], 20.8 µM (inactive); in experiment [10], 40.6 µM (inactive); in [11], 29 µM (inactive); in experiment [12], 42 µM (inactive). Also, the GI50 in experiment [13] was 28.4 µM (inactive); in experiment [14] it was 32.2 µM (inactive); in experiment [20] it was 17.2 µM (inactive); in experiment [15], 25.5 µM (inactive); in experiment [16], 41.4 µM (inactive); in [17] it was 28.4 µM (inactive). The GI50 in experiment [18] is 22.6 µM (inactive).
For `CCCCc1ccc(Nc2nc(Cl)c3[nH]cnc3n2)cc1`, the GI50 in experiment [1] was 40.6 µM (inactive); in experiment [2], 28.1 µM (inactive); in [3] it was 20.4 µM (inactive); in experiment [4] it was 18.7 µM (inactive); in experiment [5], 16.3 µM (inactive); in experiment [19] it was 32.7 µM (inactive). The GI50 in [6] is 42.1 µM (inactive); in experiment [7] it was 24.2 µM (inactive); in experiment [8] it was 34.4 µM (inactive); in experiment [9], 27.2 µM (inactive); in experiment [10], 17.7 µM (inactive); in experiment [11] it was 16.8 µM (inactive). The GI50 in experiment [12] is 21.4 µM (inactive); in experiment [13], 20.4 µM (inactive); in [14], 15.7 µM (inactive); in [20] it was 39.1 µM (inactive); in [15], 18.4 µM (inactive); in experiment [16] it was 22 µM (inactive). Moreover, in experiment [18], the GI50 is 33 µM (inactive).
`Oc1c(Br)cc(CN(Cc2cc(Br)c(O)c(Br)c2)C2CCCCC2)cc1Br`: the GI50 in experiment [1], in experiment [2], in [3], in experiment [5], in [19] and in experiment [6] was > 100 µM (inactive) each time. Further, the GI50 in experiment [7], in experiment [8], in experiment [9], in [10], in [11] and in [12] was > 100 µM (inactive) each time. For the same compound, the GI50 in experiment [13], in [14], in experiment [20], in [15], in experiment [16] and in [17] was > 100 µM (inactive) throughout. The GI50 in [18] was > 100 µM (inactive).
